According to patent US5763442A, “Anti-parasitic activity” (Universiteit Van Pretoria, priority 1995, dated 1998):

Test system: P. falciparum (RB-1)
Assay: Direct antimalarial activity, flow cytometry, strain RB-1
Assay type: cell-based, Plasmodium falciparum
Description: To investigate the direct antimalarial activity of the riminophenazines B669, B4100, B4103, B4112, B4121, B4158 and B4169 against a laboratory strain of P. falciparum the following experiment was done:
A laboratory strain of P. falciparum (RB-1; obtained from Dr B L Sharp, National Malaria Research Programme, MRC, Durban) was maintained.
For these experiments malaria cultures of haematocrit 5.0% and initial parasitemia 2.0% were used. The malaria infected erythrocytes (ring stage) were incubated in microtitre plates with serial dilutions of B669, B4100, B4103, B4112, B4121, B4158 and B4169 (0.125-2 μg/ml) for 48 hours and processed for analysis on the flow cytometer as described in Example 3.

SMILES: c1ccc(Nc2cc3nc4ccccc4n(-c4ccccc4)c-3cc2=NC2CCCCC2)cc1 [Compound B669, N,5-bis(phenyl)-3,5-dihydro-3-(cyclohexylimino)-2-phenazinamine]
- inhibition at 0.5 µg/mL (Plasmodium falciparum, 0.5 μg/ml, 48 h, FIG. 2, read-out: inhibition of growth of P. falciparum): > 50%
- activity against the malaria microorganism Plasmodium falciparum (summary statement): good activity
